Reference: patent US10011814B2, “Salt formulations for the fermentation of marine microorganisms” (Triphase Research and Development I Corp., priority 2006, dated 2018)

System: Salinispora tropica NPS021184
Test: Production of Salinosporamide A and analogs in 42 L fermentor culture; titers by HPLC
Details: for decrease of production: Ex.3, chemically defined salt formulation replacing INSTANT OCEAN, with cobalt
Method: Seed cultures were prepared by inoculating frozen stock of Salinispora tropica NPS021184 into seed medium. For 10 mL seed medium in a 50-mL culture tube, one frozen stock (˜1.5 mL) was used for inoculation. For 100 mL seed medium in a 500-mL Erlenmeyer flask, two frozen stocks (˜3 mL total) were used for inoculation.
The first seed cultures (either 10 mL medium in a 50-mL tube or 100 mL medium in a 500-mL Erlenmeyer flask) were incubated at 250 rpm and 28° C. for 3 to 4 days before inoculating (5% inoculum) into second seed medium with the same salt composition as used for the first seed cultures. After incubating at 250 rpm and 28° C. for 2 days, the second seed cultures (5% inoculum) were inoculated into an additional third seed culture (400 mL medium in 2.8 L Fembach flask) with the same medium, salt composition and incubation time as the second seed cultures, before inoculating into production media in the fermentor (26 L medium in a 42 L B. Braun Biostat-C fermentor).
The production medium was then supplemented with either INSTANT OCEAN® commercial salt formulation or a chemically defined salt formulation based on the salt supplement used in the seed stages. The chemically defined salt formulation consisted of: […]
The production medium for fermentation was also supplemented with CoCl2.6H2O at a concentration of 52 μg/L. No CoCl2.6H2O was added to the production medium in control samples.
3.5 mL of the fermentation culture was mixed with equal volume of EtOAc in an extraction tube to extract the various metabolites from the production culture.
(§1) The mixture was shaken for 1 hr. An aliquot of the extract (1 mL) was removed and dried under a stream of nitrogen. The dried extract was stored at −20° C. freezer before HPLC analysis. The dried extract was resuspended in 320 μL DMSO and injected into HPLC using the 00TF14 method for analysis.
The production of Salinosporamide A, NPI-0047 and NPI-2065 was monitored by Agilent HP1100 HPLC using an ACE C-18 reversed-phase column (4.6×150 mm), and solvent system consisting of water (0.01% TFA) as solvent A and acetonitrile (0.01% TFA) as solvent B. The elution was started at 100% solvent A for 1 min, 100% solvent A to 35% solvent A gradient in 7 min, held at 35% solvent A for 11 min, 35% solvent A to 100% solvent B in 8 min and held at 100% solvent B for 9 min at a flow rate of 1.5 mL/min with the detector wavelength set at 210 nm and column temperature 35° C.
The first seed culture (100 mL medium) in a 500-mL Erlenmeyer flask was incubated at 250 rpm and 28° C. for 72 hours. 20 mL of the first seed culture was inoculated into second seed culture (400 ml medium) in a 2.8 L Fernbach flask with the same medium as the first seed culture. The second seed culture was incubated at 250 rpm and 28° C. for 48 hours. 200 mL of the […] was inoculated into a B. Braun B-Plus 5 L fermentor containing 4 L third seed medium with the same composition as the first and second seed medium. The thirds seed fermentor culture was incubated at 300 rpm and 28° C. with the airflow rate of 2 L/min for 36 hours. 1.5 L of the third seed culture was inoculated into 26 L production medium in a 42 L B. Braun Biostat-C fermentor.
The production fermentor culture was operated at 200 rpm and 28° C. with the airflow rate of 13 L/min.
as §1, with “3.5 mL of the fermentation culture was mixed with equal volume of EtOAc in an extraction tube to extract the various metabolites from the production culture. The mixture” for “The mixture”, “was shaken on the shaker for 1” for “was shaken for 1”
Alternatively, the production of the compounds can be achieved in a 42 L fermentor system using strain NPS21184. […]

[1] = Ex.3, cobalt in seed and production media with INSTANT OCEAN vs no cobalt

SMILES | decrease of production | decrease of production, on average [1] | increase of production, on average [1]
CC[C@H]1C(=O)N[C@@]2([C@@H](O)[C@@H]3C=CCCC3)C(=O)O[C@@]12C [NPI-0047, Salinosporamide B] | 47.3% | 48.1% | –
C[C@@]12OC(=O)[C@]1([C@@H](O)[C@@H]1C=CCCC1)NC(=O)[C@H]2CCCl [NPI-2065] | 7.9% | 23.2% | –
C[C@@]12OC(=O)[C@]1([C@@H](O)[C@@H]1C=CCCC1)NC(=O)[C@@H]2CCCl [Salinosporamide A] | 8.7% | – | 14.3%
